Measured values as given in patent US20110046056A1, “APOA-1 PEPTIDE MIMETICS” (priority 2007, published 2011).
Read-outs that look alike come from different tables or passages of the source. *1 amine or outer side, *2 acyl side, *3 side chain or, on linkers, in order; H or OH if unused. Where a SMILES comes first, the peptide text is derived from it. Bridges are numbered along the chain shown (N, C = ends). Where no end group is shown, it is not given here. [ ]: non-standard residue; d: D form. S6H = (2S)-2-aminooct-7-enoic acid, C=CCCCC[C@H](N[*:1])C(=O)[*:2]; dNle(6-ylidene) = O=C([C@@H](CCCC=[*:3])N[*:1])[*:2]; dGly(6-heptenyl) = C=CCCCCC[C@@H](N)C(=O)O; Ala(5-hexenyl) = C=CCCCCC[C@H](N)C(=O)O; dNle(6-vinyl) = C=CCCCC[C@@H](N)C(=O)O; Gla = N[C@@H](CC(C(=O)O)C(=O)O)C(=O)O; R5H = not defined here; Aib = CC(C)(N)C(=O)O

Target: T1, ABCA1 cholesterol transporter protein (Mus musculus, UniProt P41233)
T1 construct: endogenous in cells
T1 sequence (P41233 whole entry): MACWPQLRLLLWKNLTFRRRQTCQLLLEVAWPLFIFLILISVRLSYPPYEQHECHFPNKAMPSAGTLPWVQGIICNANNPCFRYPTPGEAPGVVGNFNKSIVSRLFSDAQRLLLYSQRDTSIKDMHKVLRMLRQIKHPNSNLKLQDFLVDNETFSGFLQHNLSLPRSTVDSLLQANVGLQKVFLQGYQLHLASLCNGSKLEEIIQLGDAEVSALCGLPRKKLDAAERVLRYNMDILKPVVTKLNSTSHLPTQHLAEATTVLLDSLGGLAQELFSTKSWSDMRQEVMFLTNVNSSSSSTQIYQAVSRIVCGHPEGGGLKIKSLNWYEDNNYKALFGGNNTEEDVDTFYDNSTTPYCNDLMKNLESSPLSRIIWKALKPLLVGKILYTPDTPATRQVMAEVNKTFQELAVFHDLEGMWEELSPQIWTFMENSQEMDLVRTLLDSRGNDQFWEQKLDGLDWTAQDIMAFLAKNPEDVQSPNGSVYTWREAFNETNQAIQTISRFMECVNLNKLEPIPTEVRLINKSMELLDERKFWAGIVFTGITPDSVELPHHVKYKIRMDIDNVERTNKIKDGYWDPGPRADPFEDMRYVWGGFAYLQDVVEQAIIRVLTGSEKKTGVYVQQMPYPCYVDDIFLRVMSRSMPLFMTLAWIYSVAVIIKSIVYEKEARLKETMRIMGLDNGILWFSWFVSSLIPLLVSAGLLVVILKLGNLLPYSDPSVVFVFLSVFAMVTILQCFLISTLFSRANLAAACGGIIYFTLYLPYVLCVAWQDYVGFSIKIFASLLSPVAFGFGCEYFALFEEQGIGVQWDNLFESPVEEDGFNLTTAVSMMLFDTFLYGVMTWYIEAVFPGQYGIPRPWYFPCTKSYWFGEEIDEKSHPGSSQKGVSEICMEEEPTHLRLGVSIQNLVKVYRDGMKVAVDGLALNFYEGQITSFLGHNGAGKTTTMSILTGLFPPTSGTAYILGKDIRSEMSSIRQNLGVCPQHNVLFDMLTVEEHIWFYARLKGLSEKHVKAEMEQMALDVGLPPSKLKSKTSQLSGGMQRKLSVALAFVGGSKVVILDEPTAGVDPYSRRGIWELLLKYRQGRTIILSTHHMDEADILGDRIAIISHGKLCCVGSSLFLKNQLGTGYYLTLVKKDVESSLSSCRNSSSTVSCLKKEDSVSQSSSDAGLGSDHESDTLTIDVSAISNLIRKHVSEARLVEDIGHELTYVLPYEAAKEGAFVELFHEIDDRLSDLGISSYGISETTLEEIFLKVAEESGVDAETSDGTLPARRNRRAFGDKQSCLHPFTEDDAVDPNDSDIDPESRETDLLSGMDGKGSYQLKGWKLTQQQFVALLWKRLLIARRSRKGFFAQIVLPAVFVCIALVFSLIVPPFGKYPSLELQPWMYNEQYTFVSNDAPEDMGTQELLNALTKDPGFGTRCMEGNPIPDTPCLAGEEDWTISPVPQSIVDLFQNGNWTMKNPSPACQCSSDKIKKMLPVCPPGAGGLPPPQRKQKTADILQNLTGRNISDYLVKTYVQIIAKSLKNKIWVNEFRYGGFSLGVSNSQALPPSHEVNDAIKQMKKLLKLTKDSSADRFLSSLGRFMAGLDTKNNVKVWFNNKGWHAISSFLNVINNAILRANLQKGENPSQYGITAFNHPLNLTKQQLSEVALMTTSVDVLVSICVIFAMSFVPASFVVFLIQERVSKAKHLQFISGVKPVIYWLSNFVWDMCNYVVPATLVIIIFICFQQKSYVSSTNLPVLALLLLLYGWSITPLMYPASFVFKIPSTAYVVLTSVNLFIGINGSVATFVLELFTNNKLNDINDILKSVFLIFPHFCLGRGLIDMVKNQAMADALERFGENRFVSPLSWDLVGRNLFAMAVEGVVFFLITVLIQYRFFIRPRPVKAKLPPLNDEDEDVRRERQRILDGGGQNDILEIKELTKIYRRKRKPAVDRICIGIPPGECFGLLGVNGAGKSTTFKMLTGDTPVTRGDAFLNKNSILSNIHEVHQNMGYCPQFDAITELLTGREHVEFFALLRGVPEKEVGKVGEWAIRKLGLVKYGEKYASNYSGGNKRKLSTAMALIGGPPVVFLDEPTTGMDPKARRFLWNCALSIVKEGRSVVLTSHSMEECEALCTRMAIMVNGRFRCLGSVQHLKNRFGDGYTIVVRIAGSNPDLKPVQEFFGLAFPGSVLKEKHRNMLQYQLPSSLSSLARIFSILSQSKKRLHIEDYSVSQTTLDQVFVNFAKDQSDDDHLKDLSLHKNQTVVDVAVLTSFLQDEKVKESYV
Assay: ABCA1-dependent cholesterol efflux from RAW mouse macrophage cells (in vitro RCT assay)
Type: cell-based
Source text: Peptides of the present invention were designed based on amphipathic properties and their abilities to solubilize phospholipids and promote cholesterol efflux. The most direct functional measurement of efficacy for the ApoA-1 peptide mimetic is its capacity to improve the efflux of cholesterol from the cell. The RAW and J774 cell lines are reliable mouse macrophage cell lines frequently used in the art for this purpose. […] The RAW cell line is preferred and recited in the description below.
In the present assay, the RAW cells are plated at 1.5×10^5 cells/200 μl/well/48-well plate in DMEM complete medium (with 10% FBS from INVITROGEN and 1% penicillin-streptomycin-glutamine from GIBCO) and ^3H-cholesterol at 5 μCi/ml. After 24 hours incubation in a moist 37° C. atmosphere with 5% CO2, the spent medium is removed, the cells are washed once with serum-free DMEM (0.1% fatty acid free bovine serum albumin replaces the FBS), and fresh serum-free medium (200 μl) is added to each well. After overnight incubation in the serum-free medium to allow the cellular cholesterol pools to equilibrate, the spent medium is removed, and fresh serum-free medium is added with/without CPT-cAMP (150 μM final). Eight-point serial titrations of the peptide/s being tested are added at this time (duplicate titrations in plain medium without cAMP and duplicate titrations in medium containing cAMP).
After 24 hours incubation in the various conditions, the medium is harvested from each well and 50 μl aliquots are counted. The cells are then lysed by adding 500 μl of HEPES/Triton lysis buffer to each well. The lysis is facilitated by freezing and thawing once. After thawing, the lysates are mixed well and 50 μl aliquots are counted.
The percent efflux of each peptide in each medium condition (±cAMP) is calculated by dividing the total counts in the medium by the sum of the total counts in the medium and lysate. The percent efflux seen with plain medium is subtracted from the percent efflux seen with the cAMP-stimulated efflux to yield the reported ABCA1-stimulated values. EC50 values are determined using PRISM software (Table 2).

[1] = read-out: ABCA1-DEPENDENT CHOLESTEROL EFFLUX EC50
[2] = read-out: EC50 in the cholesterol efflux assay (RCT in vitro assay)

How did the EC50 [1] turn out when C=CCCCCC[C@H](NC(=O)[C@H](CCC(=O)O)NC(=O)[C@H](CC(=O)O)NC(=O)[C@H](CC(C)C)NC(=O)[C@@H](NC(=O)[C@@H]1CCCN1C(C)=O)C(C)C)C(=O)N[C@@H](CCCNC(=N)N)C(=O)N[C@@H](CCC(=O)O)C(=O)N[C@@H](CCCCN)C(=O)N[C@@H](CC(C)C)C(=O)N[C@@H](CC(N)=O)C(=O)N[C@@H](CCC(=O)O)C(=O)N[C@H](CCCCC=C)C(=O)N[C@@H](CC(C)C)C(=O)N[C@@H](CCC(=O)O)C(=O)N[C@@H](C)C(=O)N[C@@H](CC(C)C)C(=O)N[C@@H](CCCCN)C(=O)N[C@@H](CCC(N)=O)C(=O)N[C@@H](CCCCN)C(=O)N[C@@H](CC(C)C)C(=O)N[C@@H](CCCCN)C(N)=O [compound 10] (Ac-PVLDE[Ala(5-hexenyl)]REKLNE[dNle(6-vinyl)]LEALKQKLK-NH2; C-terminus assumed) was run?
The EC50 was 1300 nM.

For C=CCCCCC[C@H](NC(=O)[C@H](CCC(=O)O)NC(=O)[C@H](CC(N)=O)NC(=O)[C@H](CC(C)C)NC(=O)[C@H](CCCCN)NC(=O)[C@H](CCC(=O)O)NC(=O)[C@H](CCCNC(=N)N)NC(=O)[C@H](Cc1ccccc1)NC(=O)[C@H](CCC(=O)O)NC(=O)[C@H](CC(=O)O)NC(=O)[C@H](CC(C)C)NC(=O)[C@@H](NC(=O)[C@@H]1CCCN1C(C)=O)C(C)C)C(=O)N[C@@H](CC(C)C)C(=O)N[C@@H](CCC(=O)O)C(=O)N[C@@H](C)C(=O)N[C@@H](CC(C)C)C(=O)N[C@@H](CCCCN)C(=O)N[C@@H](CCC(N)=O)C(=O)N[C@@H](CCCCN)C(=O)N[C@@H](CC(C)C)C(=O)N[C@@H](CCCCN)C(N)=O [SEQ ID NO 29, PVLDEFREKLNES7HLEALKQKLK] (Ac-PVLDEFREKLNE[Ala(5-hexenyl)]LEALKQKLK-NH2), which EC50 [2] is on record?
The EC50 was 2000 nM.

“11 (Ac-PVLDEFREKLNE[R5H]LEA[R5H]KQKLK; staple 13-17; reading uncertain) [compound 11]” was tested. Which “ABCA1-DEPENDENT CHOLESTEROL EFFLUX, % at one concentration” value (from here on “ABCA1-DEPENDENT CHOLESTEROL EFFLUX, %”) (AT 30 µM / @ 30) did it give?
The value was less than 2% AT 30 UM.

Which “ABCA1-DEPENDENT CHOLESTEROL EFFLUX, %” value (AT 100 µM / @ 100) does the source give for “6 (Ac-PVLDEFREKLNE[Aib]LEALKQKLK; not fully specified (C-terminus)) [compound 6]” here?
The value was 6% AT 100 UM.

With C=CCCC[C@@H](NC(=O)[C@H](CCC(=O)O)NC(=O)[C@H](CC(N)=O)NC(=O)[C@H](CC(C)C)NC(=O)[C@@H](CCCC=C)NC(=O)[C@H](CCC(=O)O)NC(=O)[C@H](CCCNC(=N)N)NC(=O)[C@H](Cc1ccccc1)NC(=O)[C@H](CCC(=O)O)NC(=O)[C@H](CC(=O)O)NC(=O)[C@H](CC(C)C)NC(=O)[C@@H](NC(=O)[C@@H]1CCCN1C(C)=O)C(C)C)C(=O)N[C@@H](CC(C)C)C(=O)N[C@@H](CCC(=O)O)C(=O)N[C@@H](C)C(=O)N[C@@H](CC(C)C)C(=O)N[C@@H](CCCCN)C(=O)N[C@@H](CCC(N)=O)C(=O)N[C@@H](CCCCN)C(=O)N[C@@H](CC(C)C)C(=O)N[C@@H](CCCCN)C(N)=O [compound 9] (Ac-PVLDEFRE[dNle(6-ylidene)]LNE[dNle(6-ylidene)]LEALKQKLK-NH2; C-terminus assumed) as the compound, how does the EC50 [1] read?
Its EC50 is 46000 nM.

For C=CCCCC[C@@H](NC(=O)[C@H](CCC(=O)O)NC(=O)[C@H](CC(N)=O)NC(=O)[C@H](CC(C)C)NC(=O)[C@H](CCCCN)NC(=O)[C@H](CCC(=O)O)NC(=O)[C@H](CCCN=C(N)N)NC(=O)[C@H](Cc1ccccc1)NC(=O)[C@H](CCC(=O)O)NC(=O)[C@H](CC(=O)O)NC(=O)[C@H](CC(C)C)NC(=O)[C@@H](NC(=O)[C@@H]1CCCN1C(C)=O)C(C)C)C(=O)N[C@@H](CC(C)C)C(=O)N[C@@H](CCC(=O)O)C(=O)N[C@@H](C)C(=O)N[C@@H](CC(C)C)C(=O)N[C@@H](CCCCN)C(=O)N[C@@H](CCC(N)=O)C(=O)N[C@@H](CCCCN)C(=O)N[C@@H](CC(C)C)C(=O)N[C@@H](CCCCN)C(N)=O [SEQ ID NO 18, PVLDEFREKLNER6HLEALKQKLK] (Ac-PVLDEFREKLNE[dNle(6-vinyl)]LEALKQKLK-NH2), which EC50 [2] is on record?
Its EC50 is 18000 nM.

For C=CCCCCC[C@H](NC(=O)[C@H](CCC(=O)O)NC(=O)[C@H](CC(N)=O)NC(=O)[C@H](CC(C)C)NC(=O)[C@H](CCCCN)NC(=O)[C@H](CCC(=O)O)NC(=O)[C@H](CCCN=C(N)N)NC(=O)[C@@H](CCCCC=C)NC(=O)[C@H](CCC(=O)O)NC(=O)[C@H](CC(=O)O)NC(=O)[C@H](CC(C)C)NC(=O)[C@@H](NC(=O)[C@@H]1CCCN1C(C)=O)C(C)C)C(=O)N[C@@H](CC(C)C)C(=O)N[C@@H](CCC(=O)O)C(=O)N[C@@H](C)C(=O)N[C@@H](CC(C)C)C(=O)N[C@@H](CCCCN)C(=O)N[C@@H](CCC(N)=O)C(=O)N[C@@H](CCCCN)C(=O)N[C@@H](CC(C)C)C(=O)N[C@@H](CCCCN)C(N)=O [SEQ ID NO 13, PVLDER6HREKLNES7HLEALKQKLK] (Ac-PVLDE[dNle(6-vinyl)]REKLNE[Ala(5-hexenyl)]LEALKQKLK-NH2), which EC50 [2] is on record?
The EC50 was 400 nM.

Which “activity in the cholesterol efflux / in vitro RCT assay, in words” value does the source give for “PR7HLDEFREKLNEELEALKQKLK (Ac-P[dGly(6-heptenyl)]LDEFREKLNEELEALKQKLK; not fully specified (C-terminus)) [SEQ ID NO 20]” here?
The value was “only slightly active”.

“Ac-PVLDEFREKLNE[Ala(5-hexenyl)]LEALKQKLKPVLDEFREKLNE[Ala(5-hexenyl)]LEALKQKLK-NH2 (C-terminus assumed) [SEQ ID NO 63]” was tested. Which EC50 [2] did it give?
The EC50 was 41000 nM.

Which “activity in the cholesterol efflux / in vitro RCT assay, in words” value does the source give for “PS6HLDEFREKLNEELEALKQKLK (Ac-P[S6H]LDEFREKLNEELEALKQKLK; not fully specified (C-terminus)) [SEQ ID NO 23]” here?
The value was “only slightly active”.

Which EC50 [2] does the source give for CCCCCCCCCCCCC(NC(=O)[C@H](CCC(=O)O)NC(=O)[C@H](CC(N)=O)NC(=O)[C@H](CC(C)C)NC(=O)[C@H](CCCCN)NC(=O)[C@H](CCC(=O)O)NC(=O)[C@H](CCCNC(=N)N)NC(=O)[C@H](Cc1ccccc1)NC(=O)[C@H](CCC(=O)O)NC(=O)[C@H](CC(=O)O)NC(=O)[C@H](CC(C)C)NC(=O)[C@@H](NC(=O)[C@@H]1CCCN1C(C)=O)C(C)C)C(=O)N[C@@H](CC(C)C)C(=O)N[C@@H](CCC(=O)O)C(=O)N[C@@H](C)C(=O)N[C@@H](CC(C)C)C(=O)N[C@@H](CCCCN)C(=O)N[C@@H](CCC(N)=O)C(=O)N[C@@H](CCCCN)C(=O)N[C@@H](CC(C)C)C(=O)N[C@@H](CCCCN)C(N)=O (single isomer, unassigned) [SEQ ID NO 38, PVLDEFREKLNE-(RS)12H3-LEALKQKLK] here?
Its EC50 is 200 to 400 nM.

CCCCCCCCCCCCC(NC(=O)[C@H](CCC(=O)O)NC(=O)[C@H](CC(=O)O)NC(=O)[C@H](CC(C)C)NC(=O)[C@@H](NC(=O)[C@@H]1CCCN1C(C)=O)C(C)C)C(=O)N[C@@H](CCCNC(=N)N)C(=O)N[C@@H](CCC(=O)O)C(=O)N[C@@H](CCCCN)C(=O)N[C@@H](CC(C)C)C(=O)N[C@@H](CC(N)=O)C(=O)N[C@@H](CCC(=O)O)C(=O)N[C@@H](CCC(=O)O)C(=O)N[C@@H](CC(C)C)C(=O)N[C@@H](CCC(=O)O)C(=O)N[C@@H](C)C(=O)N[C@@H](CC(C)C)C(=O)N[C@@H](CCCCN)C(=O)N[C@@H](CCC(N)=O)C(=O)N[C@@H](CCCCN)C(=O)N[C@@H](CC(C)C)C(=O)N[C@@H](CCCCN)C(N)=O (single isomer, unassigned) [SEQ ID NO 37, PVLDE-(RS)12H3-REKLNEELEALKQKLK] was tested. Which EC50 [2] did it give?
Its EC50 is 100 to 400 nM.

“7 (Ac-PVLDEFREKLNE[Aib]LE[Aib]LKQKLK; not fully specified (C-terminus)) [compound 7]” was tested. Which “ABCA1-DEPENDENT CHOLESTEROL EFFLUX, %” value (AT 150 µM) did it give?
Its value is 5% AT 150 UM.

Which EC50 [2] does the source give for C=CCCCCC[C@H](NC(=O)[C@H](CCC(=O)O)NC(=O)[C@H](CC(N)=O)NC(=O)[C@H](CC(C)C)NC(=O)[C@H](CCCCN)NC(=O)[C@H](CCC(=O)O)NC(=O)[C@H](CCCNC(=N)N)NC(=O)[C@H](Cc1ccccc1)NC(=O)[C@H](CCC(=O)O)NC(=O)[C@H](CC(=O)O)NC(=O)[C@H](CC(C)C)NC(=O)[C@@H](NC(=O)[C@@H]1CCCN1C(C)=O)C(C)C)C(=O)N[C@@H](CC(C)C)C(=O)N[C@@H](CC(C(=O)O)C(=O)O)C(=O)N[C@@H](C)C(=O)N[C@@H](CC(C)C)C(=O)N[C@@H](CCCCN)C(=O)N[C@@H](CCC(N)=O)C(=O)N[C@@H](CCCCN)C(=O)N[C@@H](CC(C)C)C(=O)N[C@@H](CCCCN)C(N)=O [SEQ ID NO 47, PVLDEFREKLNES7HL-GLA-ALKQKLK] (Ac-PVLDEFREKLNE[Ala(5-hexenyl)]L[Gla]ALKQKLK-NH2; C-terminus assumed) here?
The EC50 was 700 nM.

CC(=O)N1CCC[C@H]1C(=O)N[C@H](C(=O)N[C@@H](CC(C)C)C(=O)N[C@@H](CC(=O)O)C(=O)N[C@@H](CCC(=O)O)C(=O)N[C@@H](Cc1ccccc1)C(=O)N[C@@H](CCCNC(=N)N)C(=O)N[C@@H](CCC(=O)O)C(=O)N[C@@H]1CCCC=CCCC[C@H](C(=O)N[C@@H](CC(C)C)C(=O)N[C@@H](CCC(=O)O)C(=O)N[C@@H](C)C(=O)N[C@@H](CC(C)C)C(=O)N[C@@H](CCCCN)C(=O)N[C@@H](CCC(N)=O)C(=O)N[C@@H](CCCCN)C(=O)N[C@@H](CC(C)C)C(=O)N[C@@H](CCCCN)C(N)=O)NC(=O)[C@H](CCC(=O)O)NC(=O)[C@H](CC(N)=O)NC(=O)[C@H](CC(C)C)NC1=O)C(C)C [compound 12] (Ac-PVLDEFRE[dNle(6-ylidene)]LNE[dNle(6-ylidene)]LEALKQKLK-NH2; staple 9-13; C-terminus assumed) was tested. Which EC50 [1] did it give?
The EC50 was 10000 nM.
